≈ marks a conversion by molar mass, not a printed value.
How the values were obtained:
[1] = test system: methicillin-sensitive Staphylococcus aureus (MSSA, ATCC #29213); experiment: Antibacterial assay, MIC by dilution antimicrobial susceptibility test; format: cell-based; settings: ATCC29213|MSSA, 18 h, read-out: MIC against MSSA
[2] = test system: methicillin-resistant Staphylococcus aureus (MRSA, ATCC #33591); experiment: as above; format: cell-based; settings: ATCC33591|MRSA, 18 h, read-out: MIC against MRSA
[3] = qualitative statement from the literature; cited from earlier work

Compound: CN[C@H](CC(C)C)C(=O)N[C@H]1C(=O)N[C@@H](CC(N)=O)C(=O)N[C@H]2C(=O)N[C@H]3C(=O)N[C@H](C(=O)N[C@H](C(=O)O)c4cc(O)cc(O)c4-c4cc3ccc4O)[C@H](O)c3ccc(c(Cl)c3)Oc3cc2cc(c3O[C@@H]2O[C@H](CO)[C@@H](O)[C@H](O)[C@H]2O[C@H]2C[C@](C)(N)[C@H](O)[C@H](C)O2)Oc2ccc(cc2Cl)[C@H]1O [Vancomycin]
- MIC [1]: 1 µg/mL (≈ 0.69 µM)
- MIC [2]: 1 µg/mL (≈ 0.69 µM)

Compound: peptidolipin NA
- antibacterial activity (reported) [3]: moderate antibacterial activity
